# In patent US20150274719A1, “AMINO-SUBSTITUTED IMIDAZO[1,2-A]PYRIDINECARBOXAMIDES AND THEIR USE” (BAYER PHARMA AKTIENGESELLSCHAFT, priority 2012, published 2015):
# Structures can show the parent of a compound that is named as a salt.
# Biological target: T1, recombinant guanylate cyclase reporter cell line (Rattus norvegicus, UniProt P19686+P20595)
# T1 construct: expressed in transfected cells; host or cells: recombinant reporter cell line
# T1 sequence (P19686 1-690): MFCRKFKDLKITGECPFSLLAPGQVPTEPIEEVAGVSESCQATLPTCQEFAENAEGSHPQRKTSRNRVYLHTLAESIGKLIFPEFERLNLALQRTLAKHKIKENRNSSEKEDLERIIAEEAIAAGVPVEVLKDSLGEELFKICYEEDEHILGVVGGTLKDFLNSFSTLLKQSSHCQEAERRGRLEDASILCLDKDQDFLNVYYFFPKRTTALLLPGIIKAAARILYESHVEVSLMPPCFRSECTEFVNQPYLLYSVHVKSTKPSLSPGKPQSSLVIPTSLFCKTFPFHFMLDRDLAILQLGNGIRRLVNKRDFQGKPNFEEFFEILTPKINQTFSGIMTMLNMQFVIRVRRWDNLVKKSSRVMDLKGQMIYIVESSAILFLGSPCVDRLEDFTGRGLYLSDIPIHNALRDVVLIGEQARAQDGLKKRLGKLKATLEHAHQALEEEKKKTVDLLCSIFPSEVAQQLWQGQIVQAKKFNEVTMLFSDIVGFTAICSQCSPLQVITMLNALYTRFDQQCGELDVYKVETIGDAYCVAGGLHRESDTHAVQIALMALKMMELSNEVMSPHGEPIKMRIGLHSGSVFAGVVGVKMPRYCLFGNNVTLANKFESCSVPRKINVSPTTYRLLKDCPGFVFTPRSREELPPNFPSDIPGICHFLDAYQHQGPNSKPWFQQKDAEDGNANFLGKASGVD
# T1 sequence (P20595 1-619): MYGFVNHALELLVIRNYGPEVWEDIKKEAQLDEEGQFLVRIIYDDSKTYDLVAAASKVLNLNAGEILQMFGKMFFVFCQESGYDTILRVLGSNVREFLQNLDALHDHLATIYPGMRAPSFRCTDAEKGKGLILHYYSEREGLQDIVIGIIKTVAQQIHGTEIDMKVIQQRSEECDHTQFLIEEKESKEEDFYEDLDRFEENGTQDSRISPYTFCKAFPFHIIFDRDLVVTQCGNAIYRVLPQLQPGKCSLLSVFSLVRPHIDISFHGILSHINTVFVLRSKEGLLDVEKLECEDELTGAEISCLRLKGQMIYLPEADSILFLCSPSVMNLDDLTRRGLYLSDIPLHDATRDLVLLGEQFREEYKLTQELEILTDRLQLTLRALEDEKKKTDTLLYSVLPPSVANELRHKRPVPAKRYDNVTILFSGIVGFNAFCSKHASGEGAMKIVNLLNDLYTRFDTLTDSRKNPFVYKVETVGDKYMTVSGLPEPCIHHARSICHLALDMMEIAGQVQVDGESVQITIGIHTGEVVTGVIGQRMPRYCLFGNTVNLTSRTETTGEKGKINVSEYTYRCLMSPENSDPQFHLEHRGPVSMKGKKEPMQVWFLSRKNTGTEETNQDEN
# Experiment: Action on recombinant guanylate cyclase reporter cell line
# Format: cell-based
# Conditions: in some cases mean values from individual determinations
# How it was run: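 Rat recombinant guanylate cyclase reporter cell line measures cellular activity. Value reported as MEC (minimal effective concentration), sometimes averaged over individual determinations.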
row,SMILES,MEC (minimal effective concentration) [µM]
1,"Cc1nc2c(OCc3c(F)cccc3F)cc(Cl)cn2c1C(=O)NCC(N)CC(F)(F)F (single isomer, unassigned) [Example 192, ent-N-(2-Amino-4,4,4-trifluorobutyl)-6-chloro-8-[(2,6-difluorobenzyl)oxy]-2-methylimidazo[1,2-a]pyridine-3-carboxamide]",0.30
2,"Cc1nc2c(OCc3c(F)cccc3F)cc(Cl)cn2c1C(=O)NCC(N)CC(F)(F)F (single isomer, unassigned) [Example 193, ent-N-(2-Amino-4,4,4-trifluorobutyl)-6-chloro-8-[(2,6-difluorobenzyl)oxy]-2-methylimidazo[1,2-a]pyridine-3-carboxamide]",1.00
3,"CCC(C)(N)CNC(=O)c1c(C)nc2c(OCc3c(F)cccc3F)cc(Cl)cn12 (single isomer, unassigned) [Example 195, ent-N-(2-Amino-2-methylbutyl)-6-chloro-8-[(2,6-difluorobenzyl)oxy]-2-methylimidazo[1,2-a]-pyridine-3-carboxamide]",0.30
4,"COCC(C)(N)CNC(=O)c1c(C)nc2c(OCc3c(F)cccc3F)cc(Cl)cn12 (single isomer, unassigned) [Example 196, ent-N-(2-Amino-3-methoxy-2-methylpropyl)-6-chloro-8-[(2,6-difluorobenzyl)oxy]-2-methylimidazo[1,2-a]pyridine-3-carboxamide]",1.00
5,"COCC(C)(N)CNC(=O)c1c(C)nc2c(OCc3c(F)cccc3F)cc(Cl)cn12 (single isomer, unassigned) [Example 197, ent-N-(2-Amino-3-methoxy-2-methylpropyl)-6-chloro-8-[(2,6-difluorobenzyl)oxy]-2-methylimidazo[1,2-a]pyridine-3-carboxamide]",1.00
6,"COCC(C)(N)CNC(=O)c1c(C)nc2c(OCc3c(F)cccc3F)cc(C)cn12 (single isomer, unassigned) [Example 198, ent-N-(2-Amino-3-methoxy-2-methylpropyl)-8-[(2,6-difluorobenzyl)oxy]-2,6-dimethylimidazo-[1,2-a]pyridine-3-carboxamide]",0.30
7,"COCC(C)(N)CNC(=O)c1c(C)nc2c(OCc3c(F)cccc3F)cc(C)cn12 (single isomer, unassigned) [Example 199, ent-N-(2-Amino-3-methoxy-2-methylpropyl)-8-[(2,6-difluorobenzyl)oxy]-2,6-dimethylimidazo-[1,2-a]pyridine-3-carboxamide]",0.30
8,"CC[C@](C)(N)CNC(=O)c1c(C)nc2c(OCc3c(F)cccc3F)cc(C)cn12 (single isomer, unassigned) [Example 200]",0.04
9,"Cc1nc2c(OCc3c(F)cccc3F)cccn2c1C(=O)NCC(C)(N)CC(C)C (single isomer, unassigned) [Example 203, ent-N-(2-Amino-2,4-dimethylpentyl)-8-[(2,6-difluorobenzyl)oxy]-2-methylimidazo[1,2-a]pyridine-3-carboxamide]",0.10
10,"Cc1nc2c(OCc3c(F)cccc3F)cccn2c1C(=O)NCC(C)(N)CC(C)C (single isomer, unassigned) [Example 204, ent-N-(2-Amino-2,4-dimethylpentyl)-8-[(2,6-difluorobenzyl)oxy]-2-methylimidazo[1,2-a]pyridine-3-carboxamide]",1.00
11,"Cc1nc2c(OCc3c(F)cccc3F)cccn2c1C(=O)NCC(N)C(F)(F)F (single isomer, unassigned) [Example 208, ent-N-(2-Amino-3,3,3-trifluoropropyl)-8-[(2,6-difluorobenzyl)oxy]-2-methylimidazo[1,2-a]-pyridine-3-carboxamide]",0.30
12,"Cc1nc2c(OCc3c(F)cccc3F)cccn2c1C(=O)NCC(N)C(F)(F)F (single isomer, unassigned) [Example 209, ent-N-(2-Amino-3,3,3-trifluoropropyl)-8-[(2,6-difluorobenzyl)oxy]-2-methylimidazo[1,2-a]-pyridine-3-carboxamide]",0.30
13,"COCC(CN)NC(=O)c1c(C)nc2c(OCc3c(F)cccc3F)cc(C)cn12 (single isomer, unassigned) [Example 210, ent-N-(1-amino-3-methoxypropan-2-yl)-8-[(2,6-difluorobenzyl)oxy]-2,6-dimethylimidazo[1,2-a]-pyridine-3-carboxamide trifluoroacetate]",0.30
14,"Cc1nc2c(OCc3c(F)cccc3F)cc(Cl)cn2c1C(=O)NCC(N)C(C)C (single isomer, unassigned) [Example 212, ent-N-(2-Amino-3-methylbutyl)-6-chloro-8-[(2,6-difluorobenzyl)oxy]-2-methylimidazo[1,2-a]-pyridine-3-carboxamide]",1.00
15,"COCC(C)(N)CNC(=O)c1c(C)nc2c(OCc3c(F)cccc3F)cccn12 (single isomer, unassigned) [Example 214, ent-N-(2-Amino-3-methoxy-2-methylpropyl)-8-[(2,6-difluorobenzyl)oxy]-2-methylimidazo[1,2-a]-pyridine-3-carboxamide]",0.30
16,"COCC(C)(N)CNC(=O)c1c(C)nc2c(OCc3c(F)cccc3F)cccn12 (single isomer, unassigned) [Example 215, ent-N-(2-Amino-3-methoxy-2-methylpropyl)-8-[(2,6-difluorobenzyl)oxy]-2-methylimidazo[1,2-a]-pyridine-3-carboxamide]",1.00
17,"Cc1cc(OCc2c(F)cccc2F)c2nc(C)c(C(=O)NCC(C)(N)CC(C)C)n2c1 (single isomer, unassigned) [Example 219, ent-N-(2-Amino-2,4-dimethylpentyl)-8-[(2,6-difluorobenzyl)oxy]-2,6-dimethylimidazo[1,2-a]-pyridine-3-carboxamide]",0.30
18,"Cc1cc(OCc2c(F)cccc2F)c2nc(C)c(C(=O)NCC(C)(N)CC(C)C)n2c1 (single isomer, unassigned) [Example 220, ent-N-(2-Amino-2,4-dimethylpentyl)-8-[(2,6-difluorobenzyl)oxy]-2,6-dimethylimidazo[1,2-a]-pyridine-3-carboxamide]",0.10
19,"Cc1cc(OCc2c(F)cccc2F)c2nc(C)c(C(=O)NCC(N)C(C)C)n2c1 (single isomer, unassigned) [Example 224, ent-N-(2-Amino-3-methylbutyl)-8-[(2,6-difluorobenzyl)oxy]-2,6-dimethylimidazo[1,2-a]pyridine-3-carboxamide]",0.30
20,"Cc1nc2c(OCc3c(F)cccc3F)cc(Cl)cn2c1C(=O)NCC(C)(N)CC(C)C (single isomer, unassigned) [Example 226, ent-N-(2-Amino-2,4-dimethylpentyl)-6-chloro-8-[(2,6-difluorobenzyl)oxy]-2-methylimidazo[1,2-a]pyridine-3-carboxamide]",0.10
21,"Cc1nc2c(OCc3c(F)cccc3F)cc(Cl)cn2c1C(=O)NCC(C)(N)CC(C)C (single isomer, unassigned) [Example 227, ent-N-(2-Amino-2,4-dimethylpentyl)-6-chloro-8-[(2,6-difluorobenzyl)oxy]-2-methylimidazo[1,2-a]pyridine-3-carboxamide]",0.30
22,"Cc1nc2c(OCc3c(F)cccc3F)cccn2c1C(=O)NCC(N)C(C)C (single isomer, unassigned) [Example 228, ent-N-(2-Amino-3-methylbutyl)-8-[(2,6-difluorobenzyl)oxy]-2-methylimidazo[1,2-a]pyridine-3-carboxamide]",1.00
